Series [1] can be described thus: Analyte stock solution stability. It is filed as physicochemical. Conditions: 100 days; for Analyte stock solution stability, % Reference: vs fresh. The method, then:
NP046 was stable for 100 days in stock solutions of methanol and acetonitrile when stored at room temperature and -20 °C. It was stable in whole blood on bench for 3.3 hours while waiting for extraction, and was stable after three freeze-thaw cycles too.

In series [2] the test system is Plasmodium berghei transfected with green fluorescence protein (strain ANKA). In words: In vivo efficacy (four-day dosing) in P. berghei-infected mice, % parasitaemia by flow cytometry. Set-up: species or system Plasmodium berghei in male C57BL/6 mice. Conditions: day five post-infection; for % parasitaemia: once a day for four days, mean ± S.E.M; for % growth inhibition: relative to negative control (placebo). The method, then: Plasmodium berghei transfected with green fluorescence protein (strain ANKA), a chloroquine-sensitive strain, was stored in liquid nitrogen. Parasites were thawed and administered intraperitoneally (IP) to infect two donor mice a week before the experiment commenced. […] Finally, each of the test animals received 200 μl of the P. berghei-infected RBCs (1×10^7 per 200 μl PBS) IP to infect them with the parasite. There were three animals per dose group, and each of them received 200 μl of NP046 in water orally and intravenously (volume adjusted relative to the weight of mouse) at their respective dose concentration as shown below:
The test compound was administered to the animals once a day for four days. […] Blood samples were collected via tail bleeding in tubes containing PBS on day 5, and % parasitaemia was determined with FACSCalibur™ using the software CellQuestPro [5].
Finally, the percentage parasite growth inhibition was calculated using the following equation [6]: [drawing 1]
For orientation: A flow cytometer gives signals particle by particle.

The nature of series [3]: Metabolic stability in human liver microsomes. In kind it is in vitro ADME. Conditions: 0-60 minutes, read-out: in vitro intrinsic clearance. The method, then: Metabolism is an enzymatic process in which a drug is chemically modified into polar metabolites that can be more readily excreted from the body. Metabolism occurs mainly in the liver, and the intestine. The metabolic stability of NP046 was determined in human and mouse liver microsomes using a multiple-time-point method at 0, 5, 10, 30, and 60 minutes [for the methodology see Additional file 5].
Summary of the assay method for the determination of microsomal stability:
The assay method was adopted from Obach, 1999, Giuliano et al., 2005, and Naritomi et al., 2001, with a slight modification.
The liver microsome (human and mouse) was thawed at 37 °C, and diluted to 0.4 mg/ml in a preheated (at 37 °C) 0.1 M phosphate buffer.
The primary stock solutions (10 mM) of the controls and test compounds were diluted as follows: first in DMSO to obtain 400 µM solutions followed by dilution in phosphate buffer to 40 µM, and were vortex mixed well by vortexing at each step of dilution.
A reaction premix (in triplicate for each control and test compound) were prepared by mixing 15 µl of the 40 µM solution with 530 µl of 0.4 mg/ml microsome mixture in a premix plate, and mixed carefully using a plate shaker. […]
The intrinsic clearance (ml/min/kg) was calculated using the equation (Obach et al., 1997): […]

The nature of series [4]: Non-specific binding to the micro-partition device (ultrafiltration). It is filed as in vitro ADME. Conditions: PBS pH 7.4. The method, then:
PPB (plasma protein binding), the extent to which a drug binds to protein in plasma, can affect the PK-PD properties of a drug. Thus, determining the PPB property of a drug in the early stage of drug development process is crucial and a prerequisite for lead prioritization. Initially the PPB assay was performed using an ultrafiltration method [see Additional file 3], which depends on centrifugal force to move the unbound analyte of interest through a size-selective membrane. Ultrafiltration is recommended for the determination of PPB property if the non-specific binding (NSB) of the test drug to the micro-partition device is less than 5%. If NSB > 5%, an alternative technique such as equilibrium dialysis or ultracentrifugation should be used.
Procedure for the determination of nonspecific binding by Ultrafiltration (procedure was adopted from Dow, 2002; with a slight modification).
0.01 M PBS, pH 7.4, was prepared by dissolving 4 g of NaCl, 0.1 g of KCl, 0.722 g of Na2HPO4, and 0.12 g of KH2PO4 with water to a final volume of 500 ml.
Primary stock solutions of TK900D, TK900E, and NP046 at 100 µg/ml; and secondary stock solutions at 1 µg/ml in methanol were prepared. […]
The ultrafiltrate were extracted and analysed quantitatively using the validated LC-MS/MS bioanalytical drug assay methods specified in Chapters 8 and 9.
The %NSB were calculated using the equation: […]

`Oc1cc(CCCc2ccc(F)cc2)ccc1CN1CCCCC1` [NP046, 5-(3-(4-fluorophenyl)propyl)-2-(piperidin-1-ylmethyl)phenol]: the “Analyte stock solution stability, % Reference” value in series [1] (in acetonitrile, room temperature) is recorded as 102.1%; in series [1] (in acetonitrile, ~ 5°C) it was 83.1%; in series [1] (in acetonitrile, ~ -20°C), 99.9%; in series [1] (in methanol, room temperature), 93.7%; in series [1] (in methanol, ~ 5°C), 87.8%; in series [1] (in methanol, ~ -20°C) it was 94.3%. The “stability in stock solutions” value in series [1] (methanol and acetonitrile, room temperature and -20°C) is given as “stable”. Also, the “% parasitaemia” value came out at 10.2 ± 1.75% in series [2] (1 mg/kg IV), 4.05 ± 0.12% in series [2] (5 mg/kg IV), 24.3 ± 0.80% in series [2] (10 mg/kg oral) and 16.7 ± 3.34% in series [2] (50 mg/kg oral). Moreover, the “% growth inhibition” value came out at 87.4% in series [2] (5 mg/kg IV), 24.6% in series [2] (10 mg/kg oral) and 47.3% in series [2] (50 mg/kg oral). Further, the microsomal CLint at 0.99 µM in series [3] was 119 µL/min/mg. For the same compound, the “NSB (non-specific binding to the micro-partition device)” value in series [4] is more than 5%.
